Test results from patent US8614054B2, “Laser scanning cytometry mediated analysis of therapeutic efficacy in tumors” (Board of Regents, The University of Texas System, priority 2000, dated 2013).

Columns and labels:
tumor endothelial cells [1] = test: LSC analysis of endothelial cell death (CD31/TUNEL double staining) in treated mouse tumors; format: in vivo; settings: mouse liver metastasis model, treated vs untreated tumors
Excerpt: (§1) Tumor specimens or patient biopsies are obtained prior to and several time points post-treatment such as 1, 3, and 7 days or more. Tissue sections are stained using an immunofluorescent double-labeling technique which permits the simultaneous detection of endothelial cells and fluorescent markers of apoptosis such as TUNEL or caspase activity. The tissue sections are scanned by the LSC and cell data is collected by the instrument's software. For the first scan, the Wincyte software is setup by the user to contour on the cell nuclei based on propidium iodide staining. Contouring on the cell nuclei provides the total cell number of the tissue specimen and creates a ‘tissue map’ which permits selective gating of the tumor cells. In addition, contouring on the cell nuclei permits the software to identify endothelial cells (based on CD31 and/or CD34, Pharmingen, Inc., fluorescent staining) and/or TUNEL positive cells (based on fluorescent TUNEL, Promega, Inc.). […] A substantial increase in endothelial cell death post-treatment will indicate drug efficacy to induce apoptosis in tumor endothelial cells. Subsequent to endothelial cell death is the decay of the tumor vasculature. For the second scan, the Wincyte software is setup by the user to contour on the blood vessels of the tumor. The contouring is based on the fluorescence of the endothelial cell markers (CD31 and/or CD34). […]

tumor vasculature [2] = test: LSC-mediated blood vessel contouring (blood vessel density) in mouse tumors; format: in vivo; settings: treated mouse tumor, Cy5 label; untreated mouse tumor 52%
Description: (§2) Blood vessel density is defined herein as the number of blood vessels as determined from analyzing the fluorescence emission of markers bound to the endothelial cells divided by the total number of cells in the tumor as determined from analyzing the fluorescence emission of markers bound to the cell nuclei. Endothelial cell density is measured because it is a more sensitive marker. Breaks in fluorescence of the endothelial cell stain will delimitate individual blood vessels.
After the scan is complete, the gates are set on the scattergram so that the collected data can be analyzed. Relocation of a cell is used to visualize which cells are positive, i.e. CD31 and/or TUNEL positive. […] The data file can be replayed to obtain the number of cells in each quadrant that are representative of the total percent of all cells counted. […] For BVD, the instruments software is set to contour on CD31 fluorescence. […] The instrument then scans the same area but counts the number of blood vessels, i.e. a single vessel is counted by contiguous fluorescent light. […] BVD can be calculated for that sample by dividing the blood vessel count by the total number of tumor endothelial cells. Endothelial cell density is determined by dividing the total number of endothelial cells by the total number of tumor cells. […]

breast tumor cells = settings: breast cancer patients, following neoadjuvant chemotherapy (FIG. 14)
Description: FIGS. 14A-E—Biopsies taken from breast cancer patients pre and post-treatment (24, 48, 66 hours) following neoadjuvant chemotherapy were processed and stained for fluorescent TUNEL. The number of TUNEL positive cells were counted and results are represented as a percent of total cells counted. FIGS. 14F-H—Biopsies taken from breast cancer patients pre, 24, and 48 hours following neoadjuvant chemotherapy were processed and stained for fluorescent TUNEL. FIG. 14F—Representative image of tumor cell apoptosis in a human breast tumor biopsy pre- and post-chemotherapy (48 hrs.) before it is scanned by the LSC. […] FIG. 14G—Representative image of tumor cell apoptosis in a human breast tumor biopsy pre- and post-chemotherapy (48 hrs.) before it is scanned by the LSC. […] FIG. 14H—Bar graph showing the percent change in apoptotic tumor cells post-chemotherapy (24 & 48 hrs.).

endothelial cells = test: LSC quantification of endothelial cell density (ED) in tumor biopsies; format: in vivo, human; settings: following 56 days of treatment
Description: FIGS. 17A-B—FIG. 17A Is a diagram showing the concept of quantifying endothelial cells in a tumor biopsy using the LSC. The LSC is used to count endothelial and tumor cells independently in a biopsy. Endothelial cell density (ED) is calculated by dividing the total number of endothelial cells by the total number of tumor cells. FIG. 17B Graph showing that Endostatin decreased ED 1.3 fold following 56 days of treatment.
After the scan is complete, the gates are set on the scattergram so that the collected data can be analyzed. Relocation of a cell is used to visualize which cells are positive, i.e. CD31 and/or TUNEL positive. Visualization allows the gate on the scattergram to be moved so that the positive cells fall in the appropriate quadrant. The data file can be replayed to obtain the number of cells in each quadrant that are representative of the total percent of all cells counted. […] For BVD, the instruments software is set to contour on CD31 fluorescence. […] The instrument then scans the same area but counts the number of blood vessels, i.e. a single vessel is counted by contiguous fluorescent light. […] BVD can be calculated for that sample by dividing the blood vessel count by the total number of tumor endothelial cells. Endothelial cell density is determined by dividing the total number of endothelial cells by the total number of tumor cells.

tumor vasculature [3] = test: LSC-mediated blood vessel contouring (blood vessel density) of patient biopsies pre and post-treatment with endostatin; format: in vivo, human
Description: as §2
After the scan is complete, the gates are set on the scattergram so that the collected data can be analyzed. Relocation of a cell is used to visualize which cells are positive, i.e. CD31 and/or TUNEL positive. Visualization allows the gate on the scattergram to be moved so that the positive cells fall in the appropriate quadrant. The data file can be replayed to obtain the number of cells in each quadrant that are representative of the total percent of all cells counted. […] For BVD, the instruments software is set to contour on CD31 fluorescence. In Examples 2-7, this is by selecting the long red filter during the setup. The instrument then scans the same area but counts the number of blood vessels, i.e. a single vessel is counted by contiguous fluorescent light. […] BVD can be calculated for that sample by dividing the blood vessel count by the total number of tumor endothelial cells. Endothelial cell density is determined by dividing the total number of endothelial cells by the total number of tumor cells.
Tumor specimens or patient biopsies are obtained prior to and several time points post-treatment such as 1, 3, and 7 days or more. Tissue sections are stained using an immunofluorescent double-labeling technique which permits the simultaneous detection of endothelial cells and fluorescent markers of apoptosis such as TUNEL or caspase activity. The tissue sections are scanned by the LSC and cell data is collected by the instrument's software. […] The contouring is based on the fluorescence of the endothelial cell markers (CD31 and/or CD34). […]

tumor cells = test: LSC analysis of tumor cell death in patient biopsies pre and post-treatment with endostatin; format: in vivo, human; settings: for change in tumor cell death: pre vs post-treatment
Excerpt: Tumor specimens or patient biopsies are obtained prior to and several time points post-treatment such as 1, 3, and 7 days or more. Tissue sections are stained using an immunofluorescent double-labeling technique which permits the simultaneous detection of endothelial cells and fluorescent markers of apoptosis such as TUNEL or caspase activity. The tissue sections are scanned by the LSC and cell data is collected by the instrument's software. For the first scan, the Wincyte software is setup by the user to contour on the cell nuclei based on propidium iodide staining. Contouring on the cell nuclei provides the total cell number of the tissue specimen and creates a ‘tissue map’ which permits selective gating of the tumor cells. In addition, contouring on the cell nuclei permits the software to identify endothelial cells (based on CD31 and/or CD34, Pharmingen, Inc., fluorescent staining) and/or TUNEL positive cells (based on fluorescent TUNEL, Promega, Inc.). […] A substantial increase in endothelial cell death post-treatment will indicate drug efficacy to induce apoptosis in tumor endothelial cells. Subsequent to endothelial cell death is the decay of the tumor vasculature. For the second scan, the Wincyte software is setup by the user to contour on the blood vessels of the tumor. The contouring is based on the fluorescence of the endothelial cell markers (CD31 and/or CD34). […] If the treatment targets the tumor vasculature, the number of blood vessels in the tumor will be dramatically lower post-treatment.
Biopsies at different tumor sites were obtained from each of the five patients prior to and after treatment. The biopsies were stained with TUNEL and cy5 labeled antibody to CD31/[…]. […] FIGS. 8-9 represent LSC data from two of the patients. […] The data obtained from contouring on the blood vessels is shown in FIG. 12 where a representative image of blood vessel staining (CD31) is shown.
This gives a difference of 0.23. The 95% CI for this difference is (0.00,0.47), p=0.050 and is significant.

tumor endothelial cells [4] = test: LSC analysis of tumor endothelial cell death in patient biopsies pre and post-treatment with endostatin; format: in vivo, human
Excerpt: as §1

Cc1[nH]c(/C=C2\C(=O)Nc3ccccc32)c(C)c1CCC(=O)O [SU6668]
endothelial cell death (tumor endothelial cells [1]): significant endothelial cell death | blood vessel density (tumor vasculature [2]): 55%

CC(=O)O[C@H]1C(=O)[C@@]2(C)[C@H]([C@H](OC(=O)c3ccccc3)[C@]3(O)C[C@H](OC(=O)[C@H](O)[C@@H](NC(=O)c4ccccc4)c4ccccc4)C(C)=C1C3(C)C)[C@]1(OC(C)=O)CO[C@@H]1C[C@@H]2O [taxol]
number of apoptotic tumor cells (breast tumor cells): dramatic increase

endostatin
decrease of endothelial cell density (ED) (endothelial cells): 1.3 fold | effect of dosing on blood vessel density (tumor vasculature [3]; <60 mg vs >60 mg): not significant | blood vessel density (tumor vasculature [3]; Patient 1, treated for two months (FIG. 13)): dramatic decrease | BVD post-treatment (tumor vasculature [3]; patient biopsy post-treatment with endostatin, pre-treatment BVD 53%): 28% | difference in change of tumor cell death between doses (tumor cells; >60 mg vs <60 mg, 95% CI (0.00,0.47), p=0.050, significant): 0.23 | change in tumor cell death (tumor cells; dose of <60 mg): 0.02 | change in tumor cell death (tumor cells; dose of >60 mg): 0.26 | apoptotic tumor cells (tumor cells; patients treated for two months, pre vs post-treatment (FIG. 10)): two out of four patients had a dramatic increase | effect of dosing on tumor endothelial cell death (tumor endothelial cells [4]; <60 mg vs >60 mg): not significant | apoptotic endothelial cells (tumor endothelial cells [4]; patients treated for two months, pre vs post-treatment (FIG. 11)): two out of four patients had a dramatic increase
